{"source": "patent US20240226302A1", "about": "“BIODEGRADABLE LIPIDS AND FORMULATIONS FOR INTRAMUSCULAR, IN VITRO, AND EX VIVO TRANSFECTION OF MRNA” (Massachusetts Institute of Technology, priority 2022, published 2024)", "key": {"Jurkat cells": {"test_system": "Jurkat cells", "experiment": "mRNA (luciferase) transfection of Jurkat cells by LNPs, Bright-Glo assay", "assay_type": "cell-based, human", "details": "150 ng mRNA", "experimental": "(§1) LNPs for in vitro studies and intramuscular injections were prepared by hand mixing. The lipid components were dissolved in ethanol and, separately, mRNA encoding for firefly luciferase (fLuc) was diluted into a solution of 10 mM citrate pH 3.0 at a concentration of […]. The two solutions were mixed in a 3:1 water:ethanol volume ratio by repeatedly pipetting up and down. For intravenous studies, nanoparticles were instead formed by mixing the ethanol and aqueous phases with a microfluidic chip as described previously.\nBased on high transfection potency in Hela cells, some of the potent lipids were tested for mRNA delivery efficacy in Jurkat cells, an immortalized human T-cell line for potential CAR-T therapeutic applications. Jurkat cells were cultured in a RPMI-1640 medium with L-glutamine supplemented with 10% bovine serum and 1% penicillin-streptomycin. Jurkat cells were plated on a white, flat-bottom 96 well plate (Corning, Corning, NY) at a density of 100k cells/well and co-incubated dosed with 150 ng of mRNA. Luciferase expression in the cells was determined after 24 hours using a Bright-Glo assay (Promega, Madison, WI) and normalized to cell viability (Multi-tox, Promega)."}, "mice": {"test_system": "mice", "experiment": "Intramuscular injection of LNPs loaded with firefly luciferase mRNA, 0.25 mg/kg, luciferase expression", "assay_type": "in vivo", "details": "for potency compared to MD-1 (luciferase expression): 0.25 mg/kg Fluc mRNA", "experimental": "as §1\nThe in vivo potency of the ionizable lipids was screened through intramuscular injection of LNPs loaded with mRNA encoding firefly luciferase protein. These LNPs were formulated with a molar composition of (35:16:46.5:2.5) using one of the synthesized ionizable lipids, DOPE as a helper lipid, cholesterol, and DMPE-PEG. Ionizable lipid AMG104 was chosen due to high in vitro mRNA transfection ability. mRNA-loaded LNPs were intramuscularly administered in mice at a dose of 0.25 mg/kg (5 μg) and expression of luciferase protein was monitored at 6 hours (0.25 day), and day 1, 2, 3, 5 and 7.\nAdditional lipids were synthesized varying length of the hydrophobic tail with or without one alkene or by varying the location of the internal alkene near or away from the ester linkage. The number of carbons on the amine headgroup was also varied (FIG. 4). […] The luciferase expression was monitored at 6 h, 24 h, and 48 h time points after intramuscular administration of Fluc mRNA dosed at 0.25 mg/kg formulated with various LNPs containing these lipids."}, "HeLa cells": {"test_system": "HeLa cells", "experiment": "In vitro full factorial DOE formulation screening of LNPs, luciferase expression, Bright-Glo assay", "assay_type": "cell-based", "experimental": "as §1\nHeLa cells were plated on a white, flat-bottom 96 well plate (Corning, Corning, NY) at a density of 15k cells/well and allowed to recover for 24 hrs. Each well was then dosed with 150 ng of mRNA, and, after 24 hrs., luciferase expression was determined using a Bright-Glo assay (Promega, Madison, WI). The first generation of ionizable lipids was screened in this manner and the results are shown as performance relative to a positive control MD-1^3 in a heatmap in FIG. 2.\nFor intravenous experiments, design of experiments (DOE) was used to systematically vary the ratios of each of the LNP components for lipid AMG104. First, an initial screening of each of the components was performed using a definitive screening design. This experimental design allows for identification of the LNP components which have the greatest effect on delivery potency. […]"}, "[1]": {"experiment": "Lipid clearance monitored by LC-MS after intramuscular injection", "assay_type": "in vivo", "details": "BALB/C mice, LC-MS (FIG. 15A)", "experimental": "AMG1041 lipid clearance was monitored by LC-MS after intramuscular injection to BALB/C mice at various time points. AMG1041 was cleared within 24 hours from the injection site in the muscle (FIG. 15A). As a comparison, SM-102 was detectable even after 40 hours (FIG. 15B).^5 https://www.ncbi.nlm.nih.gov/pmc/articles/PMC6383180/)."}, "ovalbumin": {"test_system": "ovalbumin", "experiment": "Vaccination against ovalbumin by intramuscular injection of Ova mRNA, antibody titers and Elispot", "assay_type": "in vivo", "experimental": "AMG1041 was tested for vaccination against ovalbumin."}, "[2]": {"experiment": "Intramuscular route screening with FLuc mRNA (0.1 μg), luciferase expression", "assay_type": "in vivo", "details": "FLuc mRNA 0.1 μg (FIG. 12)", "experimental": "In addition, the importance of the OH group was evaluated. The importance of the orientation of the ester and OH was also evaluated (FIG. 10). The additional tails were also used to synthesize AMG1058, AMG1059, and AMG1041OHD. From a screening experiment using 0.1 μg FLuc mRNA dose, it was determined that the ester's specific orientation and the OH groups' location are important for G41 potency and that minor alterations can dramatically decrease potency.\nThe potency of these lipids was tested in vivo via intramuscular administration. AMG1041OHD was not tested in vivo due to difficulty in formulating these particles. The FLuc mRNA (0.1 μg) intramuscular route screening data is shown in FIG. 12 for the AMG1041 derivative lipids."}, "[3]": {"details": "comparison, FIG. 15B, reference 5 (Hassett et al.); cited from earlier work"}}, "data": [{"smiles": "CCCCCCCC/C=C\\CCCCCCCC(=O)OCC(O)CN1CCCN(CC(O)COC(=O)CCCCCCC/C=C\\CCCCCCCC)CCN(CC(O)COC(=O)CCCCCCC/C=C\\CCCCCCCC)CCCN(CC(O)COC(=O)CCCCCCC/C=C\\CCCCCCCC)CC1", "note": "(stereo not shown) [AMG104]", "values": [{"measurement": "transfection in jurkat cells as compared to MD-1 lipid", "setting": "Jurkat cells; 24 hours (FIG. 3)", "result": "increased transfection"}, {"measurement": "mRNA transfection compared to commercially used lipofectamine positive controls", "setting": "Jurkat cells; 24 hours, normalized to cell viability (FIG. 3)", "result": "higher mRNA transfection"}, {"measurement": "luciferase protein expression in mice", "setting": "mice; 0.25 mg/kg (5 μg) fLuc mRNA, LNP 35:16:46.5:2.5 ionizable lipid:DOPE:cholesterol:DMPE-PEG", "result": "high luciferase protein expression"}, {"measurement": "potency compared to MD-1 (luciferase expression)", "setting": "mice", "result": "comparable to that of MD1"}, {"measurement": "in vitro performance of formulation 2 relative to the original (control) formulation 1", "setting": "HeLa cells; AMG104 LNP formulation 2 (helper 35%, ionizable lipid 30%, cholesterol 32.5%, DMPE-PEG 2.5%, lipid:mRNA 10:1) vs formulation 1 (16/35/46.5)", "result": "~8.2", "unit": "×"}, {"measurement": "in vitro transfection", "setting": "HeLa cells; AMG104 using formulation 2", "result": "extremely potent in vitro transfection"}]}, {"smiles": "CCCCCC/C=C\\CCCC(=O)OCC(O)CN1CCCN(CC(O)COC(=O)CCC/C=C\\CCCCCC)CCN(CC(O)COC(=O)CCC/C=C\\CCCCCC)CCCN(CC(O)COC(=O)CCC/C=C\\CCCCCC)CC1", "note": "(stereo not shown) [AMG1041]", "values": [{"measurement": "time to clearance from the injection site in the muscle", "setting": "[1]", "result": "≤ 24", "unit": "h"}, {"measurement": "cellular response from Elispot assay as compared to SM-102 and MD-1", "setting": "ovalbumin; after day 28 (FIG. 14)", "result": "strong cellular response"}, {"measurement": "antibody titers, potency compared to SM-102", "setting": "ovalbumin; day 14, intramuscular, varying Ova mRNA doses (FIG. 14)", "result": "higher potency compared to SM-102"}, {"measurement": "luciferase expression, times higher", "setting": "mice; 0.25 mg/kg Fluc mRNA (FIG. 5A), comparator not stated, MD-1 named in the same sentence", "result": "2-3 times"}]}, {"smiles": "CCCC/C=C\\CCCCCCCC(=O)OCC(O)CN1CCCN(CC(O)COC(=O)CCCCCCC/C=C\\CCCC)CCN(CC(O)COC(=O)CCCCCCC/C=C\\CCCC)CCCN(CC(O)COC(=O)CCCCCCC/C=C\\CCCC)CC1", "note": "(stereo not shown) [AMG1042]", "values": [{"measurement": "potency compared to MD-1 (luciferase expression)", "setting": "mice", "result": "nearly as potent as"}]}, {"smiles": "CCCCCC/C=C\\CCCCCCCC(=O)OCC(O)CN1CCCN(CC(O)COC(=O)CCCCCCC/C=C\\CCCCCC)CCN(CC(O)COC(=O)CCCCCCC/C=C\\CCCCCC)CCCN(CC(O)COC(=O)CCCCCCC/C=C\\CCCCCC)CC1", "note": "(stereo not shown) [AMG1043]", "values": [{"measurement": "potency compared to MD-1 (luciferase expression)", "setting": "mice", "result": "nearly as potent as"}]}, {"smiles": "CCCCCC/C=C\\CCCCCCCCCC(=O)OCC(O)CN1CCCN(CC(O)COC(=O)CCCCCCCCC/C=C\\CCCCCC)CCN(CC(O)COC(=O)CCCCCCCCC/C=C\\CCCCCC)CCCN(CC(O)COC(=O)CCCCCCCCC/C=C\\CCCCCC)CC1", "note": "(stereo not shown) [AMG1044]", "values": [{"measurement": "potency compared to MD-1 (luciferase expression)", "setting": "mice", "result": "nearly as potent as"}]}, {"smiles": "CCCC/C=C\\C/C=C\\CCC(=O)OCC(O)CN1CCCN(CC(O)COC(=O)CC/C=C\\C/C=C\\CCCC)CCN(CC(O)COC(=O)CC/C=C\\C/C=C\\CCCC)CCCN(CC(O)COC(=O)CC/C=C\\C/C=C\\CCCC)CC1", "note": "(stereo not shown) [AMG1053]", "values": [{"measurement": "luciferase expression compared to control sample with MD-1", "setting": "[2]", "result": "nearly as well as the control sample with MD-1"}]}, {"smiles": "C/C=C\\C/C=C\\CCCCCC(=O)OCC(O)CN1CCCN(CC(O)COC(=O)CCCCC/C=C\\C/C=C\\C)CCN(CC(O)COC(=O)CCCCC/C=C\\C/C=C\\C)CCCN(CC(O)COC(=O)CCCCC/C=C\\C/C=C\\C)CC1", "note": "(stereo not shown) [AMG1056]", "values": [{"measurement": "luciferase expression compared to control sample with MD-1", "setting": "[2]", "result": "performed similarly"}]}, {"smiles": "CCCCCCCCCCCOC(=O)CCCCCN(CCO)CCCCCCCC(=O)OC(CCCCCCCC)CCCCCCCC", "note": "[SM-102]", "values": [{"measurement": "time after which lipid was still detectable", "setting": "[3]", "result": "> 40", "unit": "h"}]}]}
